Drawing on the NIST ThermoML archive (doi:10.1016/j.fluid.2015.05.032), this text covers refractive index, mass density and Normal boiling temperature for four compounds.

Numbers after ± are expanded uncertainties.

The nature of series [1]: refractive index (Na D-line) (dimensionless). As to conditions: 293.15 K; 101.33 kPa; Liquid; Standard Abbe refractometry.
For series [2] the following is noted: Liquid; for mass density: 298.15 K, 101.33 kPa, Vibrating tube method; for Normal boiling temperature: Ebulliometric method (Recirculating still).

What is called refractive index is a measure of how strongly the sample bends light. By mass density is commonly meant the mass of a sample divided by its volume. With `Cc1ccc(C)cc1` [1,4-dimethylbenzene], the refractive index in series [1] is listed as 1.4952 ± 0.0004. For the same compound, in series [2], the mass density worked out at 856.5 ± 0.3 kg/m3 and the Normal boiling temperature came out at 138.47 ± 0.2 °C.
As for `CCC(C)OC(C)=O` (configuration not stated) [1-methylpropyl ethanoate], the refractive index in series [1] is given as 1.3886 ± 0.0004. Further, in series [2], the mass density is given as 866.4 ± 0.3 kg/m3 and the Normal boiling temperature is 111.93 ± 0.2 °C.
As for `CC(=O)O` [acetic acid], in series [1], the refractive index was found to be 1.3718 ± 0.0004. For the same compound, in series [2], the mass density is 1043.5 ± 0.3 kg/m3 and the Normal boiling temperature is 117.93 ± 0.2 °C.
As to `COC(C)=O` [methyl ethanoate], the refractive index in series [1] stood at 1.3614 ± 0.0004. For the same compound, in series [2], the mass density is reported as 927.5 ± 0.3 kg/m3 and the Normal boiling temperature is 56.7 ± 0.2 °C.
